Experimental data published in patent US4317768A, “Dihydropyridine derivatives as stabilizers for vinyl chloride polymers” (priority 1977, dated 1982).
Values belong to the compound of their own block, whether it stands above or below them.

Columns and labels:
[1] = Static thermostability (GARDNER method), rigid PVC sheets, 210° C., 0.3 part stabilizer; conditions: for coloration of the resins, in words: 0 to 3 minutes
In short: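 Rigid sheets calendered at 160° C. from powdered PVC resin with 0.3 part by weight stabilizer (dihydropyridine or 2-phenyl-indole reference) plus usual ingredients. Sheets heated in oven at 210° C., removed every three minutes over 21 minutes until incipient carbonization. Coloration scored against GARDNER scale reference figures.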

[2] = Static thermostability (GARDNER method), rigid PVC sheets, 185° C., 0.3 part stabilizer
Method: This study was carried out according to the GARDNER method, described in British Pat. No. 1,489,685.
The reference substance was 2-phenyl-indole, a well-known and widely used stabilizer.
The stabilizer (dihydropyridine or 2-phenyl-indole) and the other usual ingredients were mixed with powdered vinyl resins and the mixtures were calendered at a temperature of 160° C. to give rigid sheets.
The sheets were then heated in a thermostated oven (185° C. or 210° C.) for different intervals of time until incipient carbonization.
The coloration of the samples was compared to a standard scale of coloration, known as the GARDNER scale and was expressed in terms of the reference figures of the GARDNER scale.
This study was carried out with the following resin:
Polyvinyl chloride resin
SL 2016 is a solution of zinc-2-ethyl-hexanoate in a mixture of hydrocarbons boiling between 158° C. and 184° C.
A second trial was performed at a temperature of 185° C., with a resin containing 0.3 part of stabilizer, the samples being removed from the oven every 6 minutes over a period of 24 minutes, then every 3 minutes until the 42nd minute (or until carbonization).

[3] = Thermostability, flexible co-polymer (b), Metrastat oven 160° C.; conditions: 0.2 part
Method: (§1) The study of the static thermostability of vinyl co-polymers was carried out according to the GARDNER method described above and, also in a more detailed manner in British Patent No. 1,489,685.
(b) Flexible co-polymer vinyl chloride-vinyl acetate.
(§2) The following compound was prepared:
The resin was allowed to gel for 5 minutes at 120° C. and the sheets were heated at 160° C. in a Metrastat oven.

[4] = Thermostability, flexible co-polymer (c), Metrastat oven 160° C.; conditions: 0.3 part
Method: as §1
(c) Flexible co-polymer vinyl chloride-vinyl acetate
as §2
The sheets were heated in a Metrastat oven at 160° C. and the following results were obtained: […]

[5] = Comparison with stabilizer G1, 0.1 part, 185° C.
Method: A test was also carried out with the following compound:
Another test was made with the same resin but containing 0.1 part of stabilizer.

[6] = Comparison with 2-phenyl-indole, vinyl chloride-vinyl acetate co-polymer, 185° C.; conditions: 0.3 part
Method: (c) Comparison with 2-phenyl-indole
A comparative test was made using the following compound:
The sheets were heated in a ventilated oven at 185° C. and the following results were obtained: […]

[7] = Comparison with 2-phenyl-indole, vinyl chloride-vinylidene chloride co-polymer, 210° C.; conditions: 0.3 part
Method: A second test was made using the following compound:
The sheets were heated in a ventilated oven at 210° C. and the following results were obtained: […]

[8] = Photostabilizing power, PVC plates exposed to the sun, GARDNER scale
Method: The photostabilizing power of the compounds of the invention was studied by exposing to the sun polyvinyl chloride plates which had been stabilized either by a dihydropyridine of the invention or by 2-phenyl-indole, or again by 2-(3'-methoxy-4'-hydroxy)-indole. This last product is an extremely valuable thermostabilizer for thermoplastic resins and is described in British Pat. No. 1,489,685.
The resin given hereunder was prepared by mixing on cylinders at 160° C.:
The plates of stabilized polyvinyl chloride, together with a plate which had not been stabilized, were stood in the sun under the same conditions and at the same time. Their colour was measured after 6 hours and 12 hours of exposure.
The coloration of the plates was determined according to two methods:
On the plates themselves, following the GARDNER scale, as in the section on thermostability,
The sign + means that the coloration lies between the lower unit and the upper half-unit. Thus, 3+ means that the coloration lies between 3 and 3.5. Similarly, the sign - means that the coloration lies between the lower half-unit and the upper unit.

[9] = Photostabilizing power, sheets exposed to the sun, co-polymer (a)
Method: (§3) The sheets were exposed to the sun and their colorations were also determined according to the GARDNER method.

[10] = Photostabilizing power, sheets exposed to the sun, rigid co-polymer (b)
Method: as §3

[11] = Polarographic study of the oxidation potential; assay type: physicochemical; conditions: acetonitrile, 0.1 M lithium perchlorate, vitrous carbon electrode, calomel reference
In short: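 Oxidation potential by polarography on a rotating vitreous carbon electrode (2,500 r.p.m.) with calomel reference and platinum counter electrode, in 0.1 M lithium perchlorate in dry acetonitrile. Scan 0 to 2 V at 10 mV/second; compounds at about 0.3×10^-3 mol/liter.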

[12] = Antioxidant power on a polyvinyl chloride resin, GARDNER method, 185° C.

Oxidation potential [11]: 0.73 ± 0.01 volts
Compound: CC1=C(C(=O)OCc2ccccc2)CC(C(=O)OCc2ccccc2)=C(C)N1 [Compound 21, 2,6-Dimethyl-3,5-dicarbobenzyloxy-1,4-dihydropyridine]
coloration, GARDNER scale ([1]; 0 min): 1 | coloration of the resins, in words [1]: considerably less | coloration, GARDNER scale ([1]; 3 min): 1 | coloration, GARDNER scale ([1]; 6 min): 2 | coloration, GARDNER scale ([1]; 9 min): 3 | coloration, GARDNER scale ([1]; 12 min): 5.5 | coloration, GARDNER scale ([1]; 15 min): 14 | coloration, GARDNER scale ([1]; 18 min): Burnt | coloration, GARDNER scale ([2]; 0 min): 1 | coloration, GARDNER scale ([2]; 6 min): 1 | coloration, GARDNER scale ([2]; 12 min): 2 | coloration, GARDNER scale ([2]; 18 min): 10 | coloration, GARDNER scale ([2]; 24 min): 12 | coloration, GARDNER scale ([2]; 27 min): 12 | coloration, GARDNER scale ([2]; 30 min): 13 | coloration, GARDNER scale ([2]; 33 min): 14 | coloration, GARDNER scale ([2]; 36 min): Burnt | coloration, GARDNER scale ([3]; 0 min): 1 | coloration, GARDNER scale ([3]; 30 min): 1 | coloration, GARDNER scale ([3]; 40 min): 3 | coloration, GARDNER scale ([3]; 50 min): 8 | coloration, GARDNER scale ([3]; 60 min): 15 | coloration, GARDNER scale ([4]; 0 min): 1 | coloration, GARDNER scale ([4]; 10 min): 1 | coloration, GARDNER scale ([4]; 20 min): 2 | coloration, GARDNER scale ([4]; 30 min): 5 | coloration, GARDNER scale ([4]; 40 min): 6 | coloration, GARDNER scale ([4]; 50 min): 7 | coloration, GARDNER scale ([4]; 60 min): 12 | coloration, GARDNER scale ([5]; 0 min): 1 | coloration, GARDNER scale ([5]; 2 min): 1 | coloration, GARDNER scale ([5]; 4 min): 2 | coloration, GARDNER scale ([5]; 6 min): 4 | coloration, GARDNER scale ([5]; 8 min): 11 | coloration, GARDNER scale ([5]; 10 min): 13 | coloration, GARDNER scale ([5]; 12 min): 17 | coloration, GARDNER scale ([6]; 0 min): 1 | coloration, GARDNER scale ([6]; 2 min): 1 | coloration, GARDNER scale ([6]; 4 min): 2 | coloration, GARDNER scale ([6]; 6 min): 3 | coloration, GARDNER scale ([6]; 8 min): 7 | coloration, GARDNER scale ([6]; 10 min): 10 | coloration, GARDNER scale ([6]; 12 min): 12 | coloration, GARDNER scale ([6]; 14 min): 16 | coloration, GARDNER scale ([7]; 0 min): 1.5 | coloration, GARDNER scale ([7]; 3 min): 2 | coloration, GARDNER scale ([7]; 6 min): 2 | coloration, GARDNER scale ([7]; 9 min): 3 | coloration, GARDNER scale ([7]; 12 min): 7 | coloration, GARDNER scale ([7]; 15 min): 15 | Coloration of the plates GARDNER ([8]; exposure to sun 0): 1 | Coloration of the plates GARDNER ([8]; exposure to sun 6h): 1 | Coloration of the plates GARDNER ([8]; exposure to sun 12h): 1.5 | Colour in GARDNER degrees ([9]; After 24 hours): 1 GARDNER degrees | Colour in GARDNER degrees ([9]; Time 0): 1 GARDNER degrees | Colour in GARDNER degrees ([10]; After 24 hours): 3.5 GARDNER degrees | Colour in GARDNER degrees ([10]; Time 0): 1.5 GARDNER degrees

thermostabilizing power compared to 2-phenyl-indole, in words ([1]; 210° C.): greatly superior to 2-phenyl-indole | Oxidation potential [11]: 0.75 ± 0.01 volts
Compound: C=CCOC(=O)C1=C(C)NC(C)=C(C(=O)OCC=C)C1 [Compound 1, 2,6-Dimethyl-3,5-dicarboallyloxy-1,4-dihydropyridine]
coloration, GARDNER scale ([1]; 0 min): 1 | coloration of the resins, in words [1]: considerably less | coloration, GARDNER scale ([1]; 3 min): 1 | coloration, GARDNER scale ([1]; 6 min): 2 | coloration, GARDNER scale ([1]; 9 min): 4 | coloration, GARDNER scale ([1]; 12 min): 7 | coloration, GARDNER scale ([1]; 15 min): Burnt | coloration, GARDNER scale ([2]; 0 min): 1 | coloration, GARDNER scale ([2]; 6 min): 1 | coloration, GARDNER scale ([2]; 12 min): 3 | coloration, GARDNER scale ([2]; 18 min): 3 | coloration, GARDNER scale ([2]; 24 min): 5 | coloration, GARDNER scale ([2]; 27 min): 7 | coloration, GARDNER scale ([2]; 30 min): 10 | coloration, GARDNER scale ([2]; 33 min): 10.5 | coloration, GARDNER scale ([2]; 36 min): 11 | coloration, GARDNER scale ([2]; 39 min): 16 | coloration, GARDNER scale ([2]; 42 min): Burnt | coloration, GARDNER scale ([3]; 0 min): 1 | coloration, GARDNER scale ([3]; 30 min): 2 | coloration, GARDNER scale ([3]; 40 min): 6 | coloration, GARDNER scale ([3]; 50 min): 12 | coloration, GARDNER scale ([3]; 60 min): 15 | coloration, GARDNER scale ([4]; 0 min): 1 | coloration, GARDNER scale ([4]; 10 min): 1 | coloration, GARDNER scale ([4]; 20 min): 2 | coloration, GARDNER scale ([4]; 30 min): 4 | coloration, GARDNER scale ([4]; 40 min): 5.5 | coloration, GARDNER scale ([4]; 50 min): 6 | coloration, GARDNER scale ([4]; 60 min): 7 | coloration, GARDNER scale ([5]; 0 min): 1 | coloration, GARDNER scale ([5]; 2 min): 1 | coloration, GARDNER scale ([5]; 4 min): 2 | coloration, GARDNER scale ([5]; 6 min): 4 | coloration, GARDNER scale ([5]; 8 min): 8 | coloration, GARDNER scale ([5]; 10 min): 11 | coloration, GARDNER scale ([5]; 12 min): 12 | coloration, GARDNER scale ([5]; 14 min): 13 | coloration, GARDNER scale ([7]; 0 min): 1 | coloration, GARDNER scale ([7]; 3 min): 1 | coloration, GARDNER scale ([7]; 6 min): 2 | coloration, GARDNER scale ([7]; 9 min): 4 | coloration, GARDNER scale ([7]; 12 min): 10 | Coloration of the plates GARDNER ([8]; exposure to sun 0): 1 | Coloration of the plates GARDNER ([8]; exposure to sun 6h): 1 | Coloration of the plates GARDNER ([8]; exposure to sun 12h): 1.5 | Colour in GARDNER degrees ([9]; After 24 hours): 1 GARDNER degrees | Colour in GARDNER degrees ([9]; Time 0): 1 GARDNER degrees | Colour in GARDNER degrees ([10]; After 24 hours): 2 GARDNER degrees | Colour in GARDNER degrees ([10]; Time 0): 1 GARDNER degrees | antioxidant power, Compound 1 vs Compound Z, in words [12]: superior to Compound Z at every concentration
